Assay results reported in US9204653B2, “5-fluoro pyrimidine derivatives” (DOW AGROSCIENCES LLC, priority 2008, dated 2015).
Where two headings read alike, the source gives them in different places.

Test system: Mycosphaerella graminicola; Anamorph: Septoria tritici; Bayer Code SEPTTR
Assay: Leaf blotch of wheat, foliar fungicide treatment, one day protectant (1DP) or three day curative (3DC)
Type: in vivo, Septoria tritici on wheat plants (variety Yuma)
Conditions: Zymoseptoria tritici, rating of percent disease control
[1] = 24 h, one day protectant (1DP), read-out: SETTTR 1DP 25 ppm
[2] = 24 h, one day protectant (1DP), read-out: SEPTTR 1DP 100 ppm
[3] = 72 h, three day curative (3DC), read-out: SEPTTR 3DC 25 ppm
[4] = 72 h, three day curative (3DC), read-out: SEPTTR 3DC 100 ppm

Row | SMILES | pest or weed control at 25 ppm [1] | pest or weed control at 100 ppm [2] | pest or weed control at 25 ppm [3] | pest or weed control at 100 ppm [4]
1 | Fc1cnc(OCc2cccs2)nc1/N=C/N1CCOCC1 [Compound 369] | 76 to 100% | 76 to 100% | 76 to 100% | 76 to 100%
2 | O=C(NCc1ccccc1F)Nc1nc(OCc2ccccc2)ncc1F [Compound 371] | 0 to 25% | 0 to 25% | 0 to 25% | 0 to 25%
3 | CN(CCOc1ncc(F)c(N)n1)c1ccccc1 [Compound 372] | 26 to 50% | 76 to 100% | – | –
4 | CCOCNc1nc(OCc2ccn(C)n2)ncc1F [Compound 374] | 51 to 75% | 76 to 100% | 76 to 100% | 76 to 100%
5 | CCOCCOc1cccc(COc2ncc(F)c(NC)n2)c1 [Compound 375] | 0 to 25% | 0 to 25% | 26 to 50% | 76 to 100%
6 | O=C(Nc1cccs1)Nc1nc(OCc2ccc(F)cc2)ncc1F [Compound 376] | 0 to 25% | 0 to 25% | 0 to 25% | 26 to 50%
7 | Cc1ccc(COc2ncc(F)c(/N=C3\CCCCN3C)n2)cc1 [Compound 377] | 76 to 100% | 76 to 100% | 51 to 75% | 76 to 100%
8 | Nc1nc(Oc2ccc(Cl)c3ccccc23)ncc1F [Compound 378] | 51 to 75% | 76 to 100% | 76 to 100% | 76 to 100%
9 | CCOCNc1nc(OC(C)c2ccc(F)cc2)ncc1F (centres unmarked) [Compound 379] | 76 to 100% | 76 to 100% | 51 to 75% | 76 to 100%
10 | NN(Cc1ccccc1)c1nc(OCc2ccc(F)cc2)ncc1F [Compound 380] | 76 to 100% | 76 to 100% | 0 to 25% | 76 to 100%
11 | Nc1nc(OCc2cccc3ccsc23)ncc1F [Compound 381] | 76 to 100% | 76 to 100% | 76 to 100% | 76 to 100%
12 | CC(Oc1ncc(F)c(N)n1)c1c(Cl)ccc(Cl)c1Cl (centres unmarked) [Compound 382] | 76 to 100% | 76 to 100% | 0 to 25% | 76 to 100%
13 | Nc1nc(OCc2ccccc2Cn2cncn2)ncc1F [Compound 383] | 0 to 25% | 0 to 25% | 26 to 50% | 0 to 25%
14 | CC(C)(C)Oc1cccc(COc2ncc(F)c(N)n2)c1 [Compound 385] | 76 to 100% | 76 to 100% | 76 to 100% | 76 to 100%
15 | COc1ccc(COc2ncc(F)c(N)n2)cc1C [Compound 386] | 76 to 100% | 76 to 100% | 76 to 100% | 76 to 100%
16 | CC(C)c1ccc(C(C)Oc2ncc(F)c(N)n2)cc1 (centres unmarked) [Compound 387] | 76 to 100% | 76 to 100% | 76 to 100% | 76 to 100%
17 | COCCOC(=O)Oc1ncc(F)c(/N=C/N(C)C)n1 [Compound 389] | 76 to 100% | 76 to 100% | 76 to 100% | 76 to 100%
18 | ONc1nc(OCc2ccccc2)ncc1F [Compound 390] | 76 to 100% | 76 to 100% | 76 to 100% | 76 to 100%
19 | Nc1nc(OCc2ccccc2I)ncc1F [Compound 391] | 51 to 75% | 76 to 100% | 26 to 50% | 76 to 100%
20 | Nc1nc(OCc2ccoc2)ncc1F [Compound 392] | 76 to 100% | 76 to 100% | 76 to 100% | 76 to 100%
21 | CC(Oc1ncc(F)c(N)n1)c1ccc([N+](=O)[O-])cc1 (centres unmarked) [Compound 393] | 26 to 50% | 76 to 100% | 26 to 50% | 76 to 100%
22 | O=C(Cc1ccccc1)Nc1nc(OCc2ccc(F)cc2)ncc1F [Compound 394] | 76 to 100% | 76 to 100% | 76 to 100% | 76 to 100%
23 | CN(N)c1nc(OCc2ccccc2)ncc1F [Compound 395] | 0 to 25% | 0 to 25% | 26 to 50% | 51 to 75%

Row | SMILES | pest or weed control at 25 ppm [1] | pest or weed control at 100 ppm [2] | pest or weed control at 25 ppm [3] | pest or weed control at 100 ppm [4]
24 | Cn1nc(COc2ncc(F)c(N)n2)c2ccccc21 [Compound 396] | 76 to 100% | 76 to 100% | 76 to 100% | 76 to 100%
25 | CNN(C)c1nc(OCc2ccc(F)cc2)ncc1F [Compound 397] | 0 to 25% | 0 to 25% | 0 to 25% | 0 to 25%
26 | Cc1ccc(COc2ncc(F)c(NC(=O)NCc3ccccc3F)n2)cc1 [Compound 398] | 0 to 25% | 0 to 25% | 0 to 25% | 26 to 50%
27 | Cc1c(N)cccc1COc1ncc(F)c(N)n1 [Compound 399] | 51 to 75% | 76 to 100% | 76 to 100% | 76 to 100%
28 | CCOc1ccc(COc2ncc(F)c(N)n2)cc1 [Compound 400] | 76 to 100% | 76 to 100% | 76 to 100% | 76 to 100%
29 | Nc1nc(OCc2ccnc3ccccc23)ncc1F [Compound 401] | 76 to 100% | 76 to 100% | 76 to 100% | 76 to 100%
30 | Cc1ccc(COc2ncc(F)c(/N=C/N3CCOCC3)n2)cc1 [Compound 402] | 76 to 100% | 76 to 100% | 76 to 100% | 76 to 100%
31 | CCC(C)C(Oc1ncc(F)c(N)n1)c1ccc(F)cc1 (centres unmarked) [Compound 403] | 76 to 100% | 76 to 100% | 26 to 50% | 76 to 100%
32 | Nc1nc(OCc2cc(Cl)cc(Cl)c2)ncc1F [Compound 404] | 76 to 100% | 76 to 100% | 76 to 100% | 76 to 100%
33 | COc1ccccc1COc1ncc(F)c(/N=C/N(C)C)n1 [Compound 405] | 76 to 100% | 76 to 100% | 76 to 100% | 76 to 100%
34 | Nc1nc(OC(c2ccccc2)c2ccc(F)cc2)ncc1F (centres unmarked) [Compound 406] | 76 to 100% | 76 to 100% | 76 to 100% | 76 to 100%
35 | COc1cccc(COc2ncc(F)c(N3CCCCC3)n2)c1 [Compound 407] | 0 to 25% | 0 to 25% | 0 to 25% | 0 to 25%
36 | Nc1nc(OCc2ccco2)ncc1F [Compound 409] | 76 to 100% | 76 to 100% | 76 to 100% | 76 to 100%
37 | Cn1ccc(COc2ncc(F)c(NCOCc3ccccc3)n2)n1 [Compound 412] | 0 to 25% | 76 to 100% | 0 to 25% | 51 to 75%
38 | Nc1nc(OC(=O)c2ccccc2)ncc1F [Compound 413] | 76 to 100% | 76 to 100% | 76 to 100% | 76 to 100%
39 | COc1ccccc1COc1ncc(F)c(NC(=O)OCc2ccccc2)n1 [Compound 415] | 51 to 75% | 76 to 100% | 76 to 100% | 76 to 100%
40 | COc1cccc(COc2ncc(F)c(NCc3ccccc3F)n2)c1 [Compound 416] | 0 to 25% | 0 to 25% | 0 to 25% | 26 to 50%
41 | CN(C)/C=N/c1nc(OC(=O)C2CC2)ncc1F [Compound 417] | 76 to 100% | 76 to 100% | 76 to 100% | 76 to 100%
42 | COCCOC(=O)Nc1nc(OCc2ccc(C)cc2)ncc1F [Compound 419] | 76 to 100% | 76 to 100% | 76 to 100% | 76 to 100%
43 | CC(C)C(=O)Oc1ncc(F)c(/N=C/N(C)C)n1 [Compound 420] | 76 to 100% | 76 to 100% | 76 to 100% | 76 to 100%
44 | CN1CCCC/C1=N\c1nc(OCc2ccccc2)ncc1F [Compound 421] | 76 to 100% | 76 to 100% | 76 to 100% | 76 to 100%
45 | Cc1ccc(C(=O)Oc2ncc(F)c(/N=C/N(C)C)n2)c(C)c1 [Compound 422] | 76 to 100% | 76 to 100% | 76 to 100% | 76 to 100%
46 | Nc1nc(OCc2cccc(O)c2)ncc1F [Compound 423] | 0 to 25% | 0 to 25% | 0 to 25% | 0 to 25%
